# From US20130165641A1, “6,11-BRIDGED BIARYL MACROLIDES” (Enanta Pharmaceuticals, Inc., priority 2007, published 2013)
# Key:
# H. influenzae = assay: MIC by micro-dilution method, H. influenzae isolates; assay type: cell-based, Haemophilus influenzae
# Method: Susceptibility tests can be used to quantitatively measure the in vitro activity of an antimicrobial agent against a given bacterial isolate. Compounds are tested for in vitro antibacterial activity by a micro-dilution method. Minimal Inhibitory Concentration (MIC) is determined in 96 well microtiter plates utilizing the appropriate broth medium for the observed bacterial isolates. […] The diluted compounds (2 μl/well) are then transferred into sterile, uninoculated medium (0.2 mL) by use of a 96 fixed tip-pipetting station. The inoculum for each bacterial strain is standardized to approximately 5×10^5 CFU/mL by optical comparison to a 0.5 McFarland turbidity standard. The plates are inoculated with 10 μl/well of adjusted bacterial inoculum. The 96 well plates are covered and incubated at 35+/−2° C. for 24 hours in ambient air environment. Following incubation, plate wells are visually examined by Optical Density measurement for the presence of growth (turbidity). The lowest concentration of an antimicrobial agent at which no visible growth occurs is defined as the MIC.
# All in vitro testing follows the guidelines described in the Approved Standards M7-A7 protocol, published by the Clinical Laboratory Standards Institute (CLSI).
# MRSA = assay: MIC by micro-dilution method, MRSA isolates; assay type: cell-based, Staphylococcus aureus; conditions: compounds of Formula XVI; for MIC MRSA 7662: MRSA isolate 7662; for MIC MRSA 33591: MRSA isolate 33591
# Summary of the method: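 CLSI M7-A7 broth microdilution with inoculum about 5×10^5 CFU/mL, in broth suited to each isolate. Plates incubated 24 h at 35±2 °C in ambient air. MIC is the lowest concentration without visible growth, judged by optical density.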
Compound,MIC (H. influenzae; H. influenzae 33929) [mg/L],MIC (H. influenzae; H. influenzae 49247) [mg/L],MIC MRSA 7662 (MRSA) [mg/L],MIC MRSA 33591 (MRSA) [mg/L]
CCC1OC(=O)C(C)(F)C(=O)C(C)C(OC2OC(C)CC(N(C)C)C2O)C2(C)CC(C)C(=O)C(C)C(OCC(=NOCc3cnc(-c4nc(N)ns4)cn3)CO2)C1(C)O (stereo not shown) [Example 64],2,1,,
CCC1OC(=O)C(C)(F)C(=O)C(C)C(OC2OC(C)CC(N(C)C)C2O)C2(C)CC(C)C(=O)C(C)C(OCC(=NOCc3nc(-c4cccc(N)n4)no3)CO2)C1(C)O (stereo not shown) [Example 52],1,2,,
CCC1OC(=O)C(C)C(=O)C(C)C(OC2OC(C)CC(N(C)C)C2O)C2(C)CC(C)C(=O)C(C)C(OCC(=NOCc3ncc(-c4cccc(N)n4)cn3)CO2)C1(C)O (stereo not shown) [Example 50],2,2,,
CCC1OC(=O)C(C)C(=O)C(C)C(OC2OC(C)CC(N(C)C)C2O)C2(C)CC(C)C(=O)C(C)C(OCC(=NOCc3ccc(-c4coc(N)n4)nc3)CO2)C1(C)O (stereo not shown) [Example 60],2,2,,
CCC1OC(=O)C(C)C(=O)C(C)C(OC2OC(C)CC(N(C)C)C2O)C2(C)CC(C)C(=O)C(C)C(OCC(=NOCc3ccc(-c4nc(N)no4)cc3)CO2)C1(C)O (stereo not shown) [Example 42],2,1,,
CCC1OC(=O)C(C)C(=O)C(C)C(OC2OC(C)CC(N(C)C)C2O)C2(C)CC(C)C(=O)C(C)C(OCC(=NOCc3nc(-c4cccc(N)n4)no3)CO2)C1(C)O (stereo not shown) [Example 53],1,1,,
CCC1OC(=O)C(C)C(=O)C(C)C(OC2OC(C)CC(N(C)C)C2O)C2(C)CC(C)C(=O)C(C)C(OCC(=NOCc3ccc(-c4coc(N)n4)cn3)CO2)C1(C)O (stereo not shown) [Example 55],2,1,,
CCC1OC(=O)C(C)C(=O)C(C)C(OC2OC(C)CC(N(C)C)C2O)C2(C)CC(C)C(=O)C(C)C(OCC(=NOCc3cnc(-c4nsc(N)n4)cn3)CO2)C1(C)O (stereo not shown) [Example 68],2,2,,
CCC1OC(=O)C(C)C(=O)C(C)C(OC2OC(C)CC(N(C)C)C2O)C2(C)CC(C)C(=O)C(C)C(OCC(=NOCc3cnc(-c4cccc(N)n4)s3)CO2)C1(C)O (stereo not shown) [Example 34],2,2,,
CCC1OC(=O)C(C)(F)C(=O)C(C)C(OC2OC(C)CC(N(C)C)C2O)C2(C)CC(C)C(=O)C(C)C(OCC(=NOCc3ccc(-c4nc(N)ns4)cc3)CO2)C1(C)O (stereo not shown) [Example 56],2,2,,
CCC(=O)N=C1C(C)CC2(C)OCC(=NOCc3ccn(-c4cccc(N)n4)n3)COC(C1C)C(C)(O)C(CC)OC(=O)C(C)(F)C(=O)C(C)C2OC1OC(C)CC(N(C)C)C1O (stereo not shown) [Example 57],4,2,,
CCC1OC(=O)C(C)C(=O)C(C)C(OC2OC(C)CC(N(C)C)C2O)C2(C)CC(C)C(=NC(C)=O)C(C)C(OCC(=NOCc3ccc(-c4nsc(N)n4)cc3)CO2)C1(C)O (stereo not shown) [Example 48],2,,,
CCC(=O)N=C1C(C)CC2(C)OCC(=NOCc3cnc(-c4cccc(N)n4)o3)COC(C1C)C(C)(O)C(CC)OC(=O)C(C)(F)C(=O)C(C)C2OC1OC(C)CC(N(C)C)C1O (stereo not shown) [Example 65],4,1,,
CCC1OC(=O)C(C)(F)C(=O)C(C)C(OC2OC(C)CC(N(C)C)C2O)C2(C)CC(C)C(=O)C(C)C(OCC(=NOCc3ccc(-c4nc(N)no4)cc3)CO2)C1(C)O (stereo not shown) [Example 38],2,4,,
CCC1OC(=O)C(C)C(=O)C(C)C(OC2OC(C)CC(N(C)C)C2O)C2(C)CC(C)C(=O)C(C)C(OCC(=NOCc3ccc(-c4nc(N)ns4)cc3)CO2)C1(C)O (stereo not shown) [Example 44],2,1,,
CCC1OC(=O)C(C)C(=O)C(C)C(OC2OC(C)CC(N(C)C)C2O)C2(C)CC(C)C(=O)C(C)C(OCC(=NOCc3ccc(-c4nc(N)ns4)nc3)CO2)C1(C)O (stereo not shown) [Example 61],2,2,,
CCC1OC(=O)C(C)C(=O)C(C)C(OC2OC(C)CC(N(C)C)C2O)C2(C)CC(C)C(=NC(C)=O)C(C)C(OCC(=NOCc3cnc(-c4cccc(N)n4)s3)CO2)C1(C)O (stereo not shown) [Example 37],4,2,,
CCC1OC(=O)C(C)C(=O)C(C)C(OC2OC(C)CC(N(C)C)C2O)C2(C)CC(C)C(=NC(C)=O)C(C)C(OCC(=NOCc3ccc(-n4nnnc4N)cc3)CO2)C1(C)O (stereo not shown) [Example 47],2,,,
CCC1OC(=O)C(C)C(=O)C(C)C(OC2OC(C)CC(N(C)C)C2O)C2(C)CC(C)C(=O)C(C)C(OCC(=NOCc3ncc(-c4cccc(N)n4)s3)CO2)C1(C)O (stereo not shown) [Example 36],2,2,,
CCC1OC(=O)C(C)C(=O)C(C)C(OC2OC(C)CC(N(C)C)C2O)C2(C)CC(C)C(=O)C(C)C(OCC(=NOCc3ccc(-c4nsc(N)n4)cn3)CO2)C1(C)O (stereo not shown) [Example 35],2,2,,
CCC1OC(=O)C(C)C(=O)C(C)C(OC2OC(C)CC(N(C)C)C2O)C2(C)CC(C)C(=O)C(C)C(OCC(=NOCc3ccc(-c4noc(N)n4)nc3)CO2)C1(C)O (stereo not shown) [Example 62],2,2,,
CCC1OC(=O)C(C)(F)C(=O)C(C)C(OC2OC(C)CC(N(C)C)C2O)C2(C)CC(C)C(=O)C(C)C(OCC(=NOCc3ccc(-c4nc(N)no4)cn3)CO2)C1(C)O (stereo not shown) [Example 43],2,2,,
CCC1OC(=O)C(C)C(=O)C(C)C(OC2OC(C)CC(N(C)C)C2O)C2(C)CC(C)C(=O)C(C)C(OCC(=NOCc3ccc(-c4nc(N)no4)cn3)CO2)C1(C)O (stereo not shown) [Example 45],2,1,,
CCC(=O)N=C1C(C)CC2(C)OCC(=NOCc3cnc(-c4nsc(N)n4)cn3)COC(C1C)C(C)(O)C(CC)OC(=O)C(C)(F)C(=O)C(C)C2OC1OC(C)CC(N(C)C)C1O (stereo not shown) [Example 67],4,2,,
CCC1OC(=O)C(C)C(=O)C(C)C(OC2OC(C)CC(N(C)C)C2O)C2(C)CC(C)C(=O)C(C)C(OCC(=NOCc3noc(-c4cccc(N)n4)n3)CO2)C1(C)O (stereo not shown) [Example 54],1,1,,
CCC1OC(=O)C(C)C(=O)C(C)C(OC2OC(C)CC(N(C)C)C2O)C2(C)CC(C)C(=O)C(C)C(OCC(=NOCc3ncc(-c4cccc(N)n4)s3)CO2)C1(C)O (stereo not shown) [Example 63],2,1,,
C=Cc1cn(-c2ccc(CON=C3COC4C(C)C(=NC(C)=O)C(C)CC(C)(OC3)C(OC3OC(C)CC(N(C)C)C3O)C(C)C(=O)C(C)(F)C(=O)OC(CC)C4(C)O)nc2)nc1N (stereo not shown) [Example 96],,,8,8
CCC1OC(=O)C(C)(F)C(=O)C(C)C(OC2OC(C)CC(N(C)C)C2O)C2(C)CC(C)C(=NC(=O)C(C)C)C(C)C(OCC(=NOCc3ccc(-n4ccc(N)n4)cn3)CO2)C1(C)O (stereo not shown) [Example 87],,,2,4
CCC1OC(=O)C(C)(F)C(=O)C(C)C(OC2OC(C)CC(N(C)C)C2O)C2(C)CC(C)C(=NC(=O)C3CC3)C(C)C(OCC(=NOCc3ccc(-n4ccc(N)n4)cn3)CO2)C1(C)O (stereo not shown) [Example 94],,,8,8
CC[C@H]1OC(=O)[C@@](C)(F)C(=O)[C@H](C)[C@@H](O[C@@H]2O[C@H](C)C[C@H](N(C)C)[C@H]2O)[C@@]2(C)C[C@@H](C)C(=NC(C)=O)[C@H](C)[C@@H](OC/C(=N\OCc3ccc(-c4nccc(N)n4)cc3)CO2)[C@]1(C)O [Example 105],,,8,8
